Structures can show the parent of a compound that is named as a salt. Where two headings read alike, the source gives them in different places.
Key:
[1] = human, in vivo, po
[2] = Mean plasma quinine concentrations over 24 hours following a single oral dose of quinine sulfate (Example 1, Studies 1 and 2); format: in vivo, human; settings: Study 2 C: single oral 324 mg capsule, fasting; 0 hours
[3] = 2 × 324 mg
[4] = for AUC0-INF / AUC0-t / Cmax: 260 mg, 1 capsule (dose adjusted to 1.25 × 324 mg)
[5] = dosing an amount between 324 mg to 658 mg, fasted
[6] = Non-transformed data, least squares mean; 324 mg, fasted conditions
[7] = in vivo
[8] = in vivo; remark: listed apart in the source
[9] = Ln-transformed data, geometric mean, fasted conditions
[10] = Non-transformed data, least squares mean, fasted conditions
[11] = Non-transformed data, least squares mean, fed conditions
[12] = Ln-transformed data, geometric mean, fasted
[13] = Non-transformed data, least squares mean, fasted

- Mean Plasma Concentration [2]: 0; ng/ml
- AUC0-INF [3, 9]: 50005.77 ng·h/mL
- AUC0-t [3, 9]: 47258.21 ng·h/mL
- Cmax [3, 9]: 3197.25 ng/mL
- Cmax ([3]; Ln-transformed data, geometric mean, fed conditions): 3332.41 ng/mL
- AUC0-INF [3, 10]: 52643.14 ng·h/mL
- AUC0-t [3, 10]: 49484.64 ng·h/mL
- Cmax [3, 10]: 3293.84 ng/mL
- Tmax [3, 10]: 2.68
- AUC0-INF [3, 11]: 54409.12 ng·h/mL
- AUC0-t [3, 11]: 51228.07 ng·h/mL
- AUC0-INF [4, 12]: 32072.92 ng·h/mL
- AUC0-t [4, 12]: 30019.28 ng·h/mL
- Cmax [4, 12]: 2251.55 ng/mL
- AUC0-INF [4, 13]: 33582.46 ng·h/mL
- AUC0-t [4, 13]: 31285.26 ng·h/mL
- Cmax [4, 13]: 2310.90 ng/mL
- Tmax ([4]; Non-transformed data, least squares mean, 324 mg, 1 capsule, fasted): 2.75
- pharmacokinetic profile proportionality to dose ([4]; dose amount between 280 mg to 324 mg): linearly proportional
- pharmacokinetic profile proportionality to dose [5]: not linearly proportional
- kelim [6]: 0.0564
- Tmax ([7]; human, 648 mg): 2.8 h
- dose proportionality (Cmax) [7]: nonlinear dose proportionality
- Tmax ([8]; human, 324 mg): 2.6 h
- Cmax and AUC0-t between the fed and fasted states ([8]; po): substantially unchanged
SMILES: C=C[C@H]1C[N@@]2CC[C@H]1C[C@H]2[C@H](O)c1ccnc2ccc(OC)cc12 [Quinine Sulfate, cinchonan-9-ol, 6′-methoxy-, (8α,9R)-, sulfate (2:1)]
- mean±SD maximum QTc change from baseline around the quinine Tmax ([1]; 324 mg): 0.01 ± 0.019 s
- mean±SD maximum QTc change from baseline around the quinine Tmax ([1]; 648 mg): 0.012 ± 0.018 s

Source: patent publication US20130005764A1, “QUININE DOSAGE FORMS AND METHODS OF USE THEREOF” (priority 2006, published 2013)
